Measured values reported in patent US9629891B2, “Products and methods for aortic abdominal aneurysm” (NATIONWIDE CHILDREN'S HOSPITAL, INC., priority 2011, dated 2017).
“Also recorded” adds a separate entry of the source.

Experiments:
[1] = system: AngII-induced mouse model of AAA; assay: Prophylactic Notch inhibition in AngII-induced mouse model of AAA; format: in vivo; conditions: ApoE−/− mice
Description: Mini osmotic pumps (Model 2004; Alzet, Cupertino, Calif.) containing AngII (1000 ng/min/kg) or saline were implanted subcutaneously in the neck region of anesthetized mice following standard protocol [Daugherty et al., J. Clin. Invest., 105:1605-1612 (2000)]. Three independent experiments were performed to determine the effect of Notch1 haploinsufficiency on the formation of AAA. In one of these three experiments the effects of pharmacological inhibition of Notch were tested on AAA formation. Mice (n=3) were injected with a Notch inhibitor, DAPT (10 mg/kg dissolved in 10% ethanol, 90% corn oil), three times a week subcutaneously starting one week before the implantation of osmotic pump and continuing for an additional 28 days until the mice were sacrificed, as explained for FIG. 6. [Loane et al., Nat. Med., 15:377-379 (2009); Lanz et al., J. Pharmacol. Exp. Ther., 305:864-871 (2003); Sjolund et al., J. Clin. Invest., 118:217-228 (2008)].
Two dimensional (B-mode) in vivo ultrasound images were obtained at weekly intervals after the implantation of osmotic pumps using a VisualSonics Vevo2100 imaging system (Ontario, Canada) with a mechanical transducer (MS400). After 28 days, the animals were euthanized and the aortas were dissected and fixed in 10% formalin. Minimum and maximum diameters of each vessel were determined by digitalized measurement (Zeiss AxioImager upright microscope with brightfield).
Histological examination of the abdominal aorta of the AngII and saline treated mutant mice was performed. The abdominal region of the aorta were embedded in paraffin and serial sections ([…]) were obtained. Sections were stained with hematoxylin and eosin (HE), elastin staining (Sigma, St. Louis, Mo.), and terminal deoxynucleotidyl transferasemediated dUTP nick-end labeling (TUNEL) staining (Roche, Indianapolis, Ind.). Statistical comparisons were performed using either Student's t-test or one-way ANOVA followed by the Bonferroni's Multiple Comparison Test. GraphPad PRISM V5.0 (San Diego, Calif.) was used for these comparisons and a P value<0.05 was considered significant. […]

RAW 264.7 [2] = assay: Inflammatory mediator mRNA expression (qRT-PCR) in unstimulated RAW cells; format: cell-based; conditions: 10 μM DAPT for 6 days, vs untreated cells
Description: (§1) The aorta was isolated from experimental mice at day 28 of AngII infusion and immediately frozen in RNA-later (Ambion, Austin, Tex.). Abdominal aorta of equal length was cut from the abdominal region of ApoE^−/− and Notch1^+/−ApoE^−/− mice and RNA was extracted using RNAqueous kit (Ambion, Austin, Tex.). RAW cells (264.7) were obtained from ATCC (Manassas, Va.) and were cultured following the manufacturer's instructions. Naïve macrophages were collected from the peritoneal cavity of ApoE^−/− or Notch1^+/−ApoE^−/− mice by standard protocol [Hans et al., Cardiovasc. Pathol., 185:1894-902 (2011); Hans et al., Cardiovasc. Res., 78:429-439 (2008); Oumouna-Benachour et al., Circulation, 115:2442-2450 (2007)]. The isolated macrophages were cultured in RPMI containing 10% FCS for 3 days and were then treated with 100 nM LPS or diluent for 3 h in RPMI containing 1% FCS. Following treatment, the macrophages were washed with cold PBS and RNA was extracted using RNAeasy kit (Qiagen, Valencia, Calif.). cDNA was synthesized using SuperScript® VILO™ cDNA Synthesis Kit (Invitrogen, Carlsbad, Calif.) and subjected to qRT-PCR by SYBR Green RT-PCR kit (Applied Biosystems, Foster City Calif.) using Applied Biosystems 7500 Fast Real-Time PCR System (Foster City Calif.). qRT-PCR was performed in triplicate and fold change determined by standardization to 18S rRNA. Results were normalized to the controls. […]

[3] = system: AngII-induced mouse model of AAA; assay: Progression of active AAA in AngII-induced mouse model, Example 8; format: in vivo
Description: Active aneurysm was introduced in ApoE^−/− mice (n=36) by administering AngII. DAPT (10 mg/kg; 3 times a week) was injected in these mice starting either 3 days (Group II; n=12) or 8 days (Group III; n=12) after AngII infusion. Group I (n=12) received vehicle (10% alcohol in corn oil) only. The time periods were chosen so that a small aortic dilation is established before DAPT is administered.
The increased collagen content in the aorta of ApoE^−/− mice in response to AngII provides stability to the tissue against sudden rupture.

RAW 264.7 [4] = assay: Inflammatory mediator mRNA expression (qRT-PCR) in LPS-stimulated RAW cells; format: cell-based; conditions: pre-treatment with 10 μM DAPT, RAW cells with 100 ng/ml LPS for 3 hours, vs non-DAPT treated cells
Description: as §1

[5] = system: AngII-induced mouse model of AAA; assay: Therapeutic Notch inhibition (start day 3 or day 8) in AngII-induced mouse model of AAA, Example 7; format: in vivo; conditions: ApoE−/− mice
Source text: In the study, mice were divided into four groups: • ApoE^−/− mice with AngII plus vehicle for 28 days (n=6); • ApoE^−/− mice with AngII plus DAPT (7 days prior to AngII infusion, n=6); • ApoE^−/− mice with AngII plus DAPT (3 days after AngII infusion, n=9); and • ApoE^−/− mice with AngII plus DAPT (8 days after AngII infusion, n=9).
These time periods were carefully selected to determine the effect of Notch inhibition on the formation of AAA before the onset of disease (−7 days), at day 3 (onset of inflammation) and day 8 (elastin degradation and cellular remodeling).
NOTCH inhibitor (DAPT; 10 mg/kg; […] in corn oil) given at day 3 and day 8 after the AngII infusion reduced the progression of active AAA in the mouse model.

[6] = AngII infusion 28 days, DAPT 10 mg/kg three times a week from one week before AngII, vs untreated ApoE−/− mice

Question: How did the aortic diameter [1, 6] turn out when `C[C@H](NC(=O)Cc1cc(F)cc(F)c1)C(=O)N[C@H](C(=O)OC(C)(C)C)c1ccccc1` [DAPT, N—[N-(3,5-Difluorophenacetyl)-L-alanyl]-S-phenylglycine t-butyl ester] was run?
Answer: statistically significant reduction

Question: What about the “incidence of AAA” value [1, 6] of the same molecule?
Answer: statistically significant reduction

Question: What about the “histologic analysis of the aorta” value ([1]; AngII infusion, DAPT 10 mg/kg prophylactic, vs untreated mice) of the same molecule?
Answer: no evidence of abdominal aneurysm; also recorded: normal aortic wall architecture without infiltration of inflammatory cells

Question: And the “expression of MCP-1, IL-6, TNF-α, CXCL-10, VEGF, iNOS, ICAM-1, and VCAM-1” value (RAW 264.7 [2])?
Answer: Decreased expression; also recorded: significantly decreased

Question: And the “luminal expansion of the abdominal aorta” value ([3]; ApoE−/− mice, AngII, DAPT 10 mg/kg 3 times a week from day 3 (Group II) or day 8 (Group III), vs vehicle, echocardiography, p<0.05)?
Answer: significantly reduced

Question: And the “expression of MMP2 and MMP9 in the aortas” value ([3]; Group II and Group III vs Group I (vehicle), quantitative real-time PCR and immunohistochemistry)?
Answer: decreased

Question: What about the “monocyte chemotactic protein-1” value ([3]; Group III (DAPT from day 8)) of the same molecule?
Answer: not associated with increased monocyte chemotactic protein-1

Question: And the “newly synthesized tropoelastin and collagen staining” value ([3]; Group III (DAPT from day 8))?
Answer: increased expression

Question: What about the “macrophage content (CD-68)” value ([3]; Group III (DAPT from day 8) vs Group I (vehicle), marginal increase vs Group II) of the same molecule?
Answer: significantly less than Group I

Question: What about the “elastin fragmentation and aortic remodeling” value ([3]; both groups (DAPT from day 3 or day 8), histology) of the same molecule?
Answer: prevented

Question: And the “expression of MCP-1, IL-6, TNF-α, CXCL-10, VEGF, iNOS, and ICAM-1” value (RAW 264.7 [4])?
Answer: Decreased expression; also recorded: significantly reduced

Question: What about the “maximal abdominal aortic width at day 28” value ([5]; AngII, DAPT treatment started at day 3 and day 8) of the same molecule?
Answer: significantly decreased

Question: What about the “progression of active AAA” value ([5]; DAPT 10 mg/kg in corn oil given at day 3 and day 8 after AngII infusion) of the same molecule?
Answer: reduced
